Drawing on patent US9554979B2, “Hair care compositions and methods of use” (The Procter & Gamble Company, priority 2011, dated 2017), this text covers Experimental solubility for 1 compound.

This series is described as follows: Experimentally observed apigenin solubility in solubilizing agents and solvents. Format: physicochemical. From the text:
Non-limiting examples of solubilizing agents, which have suitable Hansen Solubility Parameters and may be used to solubilize apigenin include triethanolamine (CAS No. 102-71-6); diethanolamine (CAS No. 203-868-0); ethanolamine (CAS No. 141-43-5); N-methylformamide (CAS No. 123-39-7); 2-dimethylaminoethanol (CAS No. 203-542-8); 2-dimethylamino-2-propanol (108-16-7); ethylenediamine (CAS No. 107-15-3); 2-amino-2-methyl-1-propanol (CAS No. 124-68-5); laurocapram (CAS No. 59227-89-3); and dimethyl capramide (Spectrasolv, CAS No. 14433-76-2). Non-limiting examples of solvents, which have suitable Hansen Solubility Parameters and may be used in combination with one or more solubilizing agents include dipropyleneglycol (CAS No. 110-98-5); propylene glycol (Hydrolite™ 5, CAS No. […]); butylene glycol (CAS No. 107-88-0); 1,4-butanediol (CAS No. 110-63-4); 3-allyloxy-1,2-propanediol (CAS No. 123-34-2); dipropylene glycol n-butyl ether (CAS No. 29911-28-2); 1,2-hexanediol (CAS No. 6920-22-5); dimethyl isosorbide (Arlasolve™ CAS No. 5306-85-4); ethanol (CAS No. 64-17-5); 1,3-butanediol (CAS No. 107-88-0); 1,3-propanediol (CAS No. 504-63-2); 2,2′-thiodiethanol (CAS No. 111-48-8); and 1,6-hexanediol (CAS No. 629-11-8). Table 2 provides a summary of various solubilizing agents and solvents and their respective HSP values, along with experimentally observed apigenin solubility.

`O=c1cc(-c2ccc(O)cc2)oc2cc(O)cc(O)c12` [apigenin, 5,7-dihydroxy-2-(4-hydroxyphenyl)-4H-1-benzopyran-4-one]: the Experimental solubility reads like this: (in 1,2-hexanediol at 90 C.) 0.4% at 90 C; (in 1,3-butanediol at 98 C.) 1.52% at 98 C; (in 1,3-propanediol at 100 C.) 0.73% at 100 C; (in 1,4-butanediol at 110 C.) 1.0% at 110 C; (in 1,6-Hexanediol at 137 C.) 4.12% at 137 C; (in 2,2′-thiodiethanol at 103 C.) 0.47% at 103 C. Moreover, the Experimental solubility was 20.03% at 71 C (in 2-amino-2-methyl-1-propanol at 71 C.); 20.18% at 21 C (in 2-dimethylamino-2-propanol (CAS 108-16-7) at 21 C.); 19.95% at 29 C (in 2-dimethylaminoethanol at 29 C.); 1.0% at 120 C (in 3-allyloxy-1,2-propanediol at 120 C.); 16.0% at RT (in Dimethyl capramide at RT); 0.32% at 21 C. and 50 C (in Ethanol at 21 C. and 50 C.). Also, the Experimental solubility runs as follows: (in Laurocapram at 21 C.) 13.0% at 21 C; (in N-methylformamide) “Ppt upon cooling”; (in butylene glycol at 98 C.) 1.52% at 98 C; (in diethanolamine at 128 C.) 20.25% at 128 C; (in dimethyl isosorbide at 100 C.) 1.54% at 100 C; (in dipropylene glycol n-butyl ether at 90 C.) 0.6% at 90 C. Further, the Experimental solubility runs as follows: (in dipropyleneglycol at 115 C.) 2.19% at 115 C; (in ethanolamine at 76 C.) 20.31% at 76 C; (in ethylenediamine at 28 C.) 20.03% at 28 C; (in propylene glycol (CAS 5343-92-0) at 100 C.) 0.62% at 100 C; (in triethanolamine at 165 C.) 12.7% at 165 C.
